What is called melting point is the temperature, or range, at which the solid turns liquid.

Residues, ends and D or L forms follow the SMILES beside them. *: point of attachment. Propionyl = CCC(=O)*; NHPh = c1ccc(N*)cc1

`CCOC(=O)C(=O)CC(=O)/C=C/c1ccc(Cl)c(OC)c1F` registered a melting point of 67.5 to 69 °C.
Take `CC1(O)CN(C(=O)c2cc(C(C)(C)C)c(O)c(C(C)(C)C)c2)C1`: the melting point was in the range of 148 to 153 °C.
The result for `CC(C)C(C(=O)O)c1ccc(Br)cc1` (stereo not given) reads 97 to 98 °C; that for `COc1ccc(OCC(O)CNCCNc2c(C)c(=O)n(C)c(=O)n2C)cc1OC` (stereo not given), 103 to 104 °C.
Compound `Cc1ccccc1C=CC(=O)C=Cc1ccccc1C` returned a melting point of 94 to 96 °C.
The result for `CN1CCC(c2cccc(F)c2)(C(C)(C)O)CC1` reads 158 to 159 °C; that for `CS(=O)(=O)NC(c1ccccc1)c1ccccc1`, 148 to 150 °C.
In the case of `CC(CCO)N1CCC(Cc2ccccc2)CC1` (stereo not given), the melting point fell in the range of 74 to 76 °C.
Turning to `CCOC(=O)/C(=C/c1ccc(OC)c2c1CC(C)(C)O2)c1ccncc1`, the melting point fell in the range of 98 to 100 °C.
Compound `CC12CCC(=O)C=C1CCC1C3CC(OCC4CO4)C(O)(C(=O)CO)C3(C)CC(O)C12F` (stereo not given) gave a melting point of 191 to 192 °C.
The result for `CN(CCOc1ccc(CC(C(=O)O)S(=O)(=O)c2ccccc2)cc1)c1nc2ccccc2o1` (stereo not given) reads 193 to 196 °C; that for `O=C(O)c1ccc(COCc2csc3nc(C(=O)NCc4ccc(F)c(Cl)c4)[nH]c(=O)c23)cc1`, 228 to 230 °C; that for `CCC1c2cccn2-c2ccc(F)cc2N1S(=O)(=O)c1ccc(OC)c(Cl)c1` (stereo not given), 152 to 154 °C.
`NS(=O)(=O)c1cc(S(N)(=O)=O)c(C(Cl)=C(Cl)Cl)cc1NCc1ccco1` yielded a melting point of 155 °C.
`N#CCCCCC(=NO)c1ccc(Br)cc1`: the melting point fell in the range of 86.5 to 88 °C.
The result for `CC(=O)SCC(CSC(C)=O)C(=O)N1c2ccccc2CCC1C(=O)O` (stereo not given) reads 149 to 151 °C; that for `CC12CC(N3CCC(O)CC3)C(O)CC1CCC1C2CCC2(C)C(O)C(N3CCCC3)CC12` (stereo not given), 188 to 190 °C.
`COc1cc2cc(CC(C)(C(N)=O)c3ccc(C#N)cc3)sc2cc1OC` (stereo not given) displayed a melting point of 178 to 180 °C.
The result for `CSc1ccc(C(C)C)c(NC(=O)CN2CCN(CCSc3nc4ccccc4o3)CC2)c1C(C)C` reads 148 to 150 °C; that for `COC(=O)c1nc(-c2ccc(Cl)c(OC)c2F)nc(N)c1OC`, 155 to 158 °C; that for `COc1cccc(/C=C/C2=CCN(Cc3nc4ccccc4[nH]3)CC2)c1`, 202 to 204 °C.
The result for `CCCCOc1cc(C)c(O)cc1C` reads 43 to 45 °C; that for `CCC(=O)N[C@@H](C)C(=O)N1CCC[C@H]1C(=O)Nc1ccccc1` (Propionyl-Ala-Pro-NHPh), 156 to 157 °C; that for `COc1ccc(S(C)=O)cc1C(=O)O` (stereo not given), 114 to 116 °C.
The result for `OC1c2ccccc2OC12CCCCCC2` (stereo not given) reads 104 to 107 °C; that for `Ic1c2n(c3ccc(OC4CC4)cc13)CCC2`, 104 to 105 °C; that for `COc1ccc(-c2nc(Sc3ccc(Cl)cc3)[nH]c2-c2ccc(OC)cc2)cc1`, 121 to 122 °C.
As for `COC(=O)[C@@H]1C[C@H](OC(=O)c2ccc([N+](=O)[O-])cc2)C[C@H]1C(=O)OCc1ccccc1`, the melting point was 79.5 °C.
On to `CN(C)C(=O)COC[C@@H]1CC(c2ccc(-c3ccc(N4C[C@H](Cn5ccnn5)OC4=O)cc3F)cn2)=NO1`, for which the melting point was in the range of 166 to 168 °C.
With `CCC1CC2CC(=O)OC3OC4(C)CCC(C1C)C23OO4` (single isomer, unassigned; (+)), the melting point fell in the range of 155 to 157 °C.
The result for `CS(=O)c1nccc(-c2nc(=O)c3ccccc3s2)n1` (stereo not given) reads 250 to 252 °C.
The result for `CC(=O)Oc1cc(OC(C)=O)cc(C(=O)CBr)c1` reads 61 to 62 °C.
Compound `c1ccc2c(c1)CCCC1C2=NNC1c1ccncc1` (stereo not given) returned a melting point of 152 to 157 °C.
Regarding `O=C(O)Cc1c(C(=O)c2cc(CO)ccn2)[nH]c2ccc(Cl)cc12`, the melting point was in the range of 218 to 219 °C.
The result for `O=C(O)COCCCCN(c1cnc(-c2ccccc2)c(-c2ccccc2)n1)C1CCCC1` reads 101 to 103 °C.
As for `Cc1cc(-c2nc3ccc(CN4CCN(C)CC4)cc3c(=O)[nH]2)cc(C)n1`, the melting point was 229 to 230 °C.
The result for `CC(=O)Nc1c(Cl)ccc(C)c1Cl` reads 180 to 182 °C; that for `O=NN1CCN(Cc2c[nH]c3ccccc23)CC1`, 116 to 118 °C; that for `CS(=O)(=O)c1ccc(-c2cc(-c3nc4ccccc4c(=O)n3-c3ccccc3Cl)sc2N2CCOCC2)cc1`, greater than 275 °C.
The result for `COCCNc1cc(-c2c(-c3cccc(C)c3)nc3cccnn23)ccn1` reads 99 to 100 °C.
The result for `CSc1ccc(/C=C(\NC(=O)c2ccc(OCC(C)C)cc2)C(=O)NCCO)cc1` reads 161 to 163 °C; that for `O=C(N[C@H]1CC[C@H](CCN2CCN(c3nccc4c3OCC4)CC2)CC1)c1ccc(-n2cccn2)cc1`, 226 °C.
Compound `O=C(O)C(=O)CC(=O)c1ccc(C2CCCCC2)cc1` had a melting point of 140 to 142 °C.
The result for `CC(C)[C@H](NC(=O)N1CCOCC1)C(=O)N[C@@H](Cc1ccccc1)C[C@H](O)[C@H](Cc1ccccc1)NC(=O)[C@@H](NC(=O)N1CCOCC1)C(C)C` reads 198 to 201 °C.
The result for `c1ccc(-c2nc(COc3cccc(Cc4nnn[nH]4)c3)cs2)cc1` reads 160 to 161 °C.
The result for `Nc1ccc(C(=O)N2Cc3ccccc3CC3=C2C=CC(Cl)C3)cc1` (stereo not given) reads 211 to 214 °C; that for `COc1cc(OC(C)C)ccc1-c1c(OC(C)C)cccc1C(=O)O`, 117 to 119 °C; that for `COCCOc1ccc2c(C3C(=O)Nc4ccccc43)ncnc2c1` (stereo not given), 245 to 248 °C.
As to `COC(=O)CCCCNC(=O)C(CS)Cc1ccccc1` (stereo not given), the melting point was in the range of 39 to 41 °C.
Compound `Clc1ccc2nc3n(c2c1)CCC3` displayed a melting point of 136 °C.
The result for `O=C(Nc1ccc(-n2nc(C(F)(F)F)cc2C(F)(F)F)cc1)c1ccc(F)cc1Cl` reads 155 to 157 °C.
The result for `COC(=O)NNC(=S)Cc1ccc(OC)cc1` reads 94.5 to 95 °C; that for `CCOC(=O)c1cc(F)ccc1[N+](=O)[O-]`, less than 50 °C; that for `CN1C(=O)Cn2c(C(=O)N3CCOCC3)nnc2-c2cc(Cl)ccc21`, 200 to 201 °C.
The result for `CN1C(=O)C=C[C@]2(C)c3ccc(-c4cccc([N+](=O)[O-])c4)cc3CC[C@@H]12` reads 175 to 177 °C.
`CCOC(=O)c1cc2c(s1)-n1c(C)nnc1CN=C2c1ccccc1Cl`: the melting point fell in the range of 148 to 150 °C.
For the compound `COc1ccccc1NC(=S)C1CCc2nc[nH]c2C1` (stereo not given), the melting point lay in the range of 218 to 219 °C.
As for `ClCc1ccc(OCCCCc2ccccc2)cc1`, the melting point fell in the range of 60 to 62 °C.
`Cc1nc(N2CCN(Cc3ccc(Cl)cc3)C2=O)sc1C(=O)NCc1cccnc1`: the melting point lay in the range of 178 to 179 °C.
`CC1(C2CCCC2)Cc2cc(OCCCCC(=O)O)c(Cl)c(Cl)c2C1=O` (stereo not given) had a melting point of 106 to 108 °C.
Take `CCCOc1ccnc(CS(=O)c2nc3ccccc3[nH]2)c1C` (stereo not given): the melting point is 81 to 83 °C.
`O=C(NCCc1ccc([N+](=O)[O-])cc1)Nc1ccc(Nc2ccccc2)cc1` came in with a melting point of 204 to 205 °C.
The result for `Cc1cc(Oc2ncc(C(F)(F)F)cc2Cl)nn1C(=O)NCC(C)C` reads 45 to 47 °C; that for `CC1(C)CCN(c2ccc(-c3nc(C(=O)Nc4nccs4)c(-c4ccc(Cl)cc4)[nH]3)cc2)CC1`, 150 to 154 °C; that for `COc1ccccc1N1CCN(Cc2ccc(NC(=O)C3=Cc4cc(-c5ccc(C)cc5)ccc4CC3)cc2)CC1`, 202 to 205 °C.
The compound `O=C1Nc2ccc(Cl)cc2C1(O)c1cccc2c1OCO2` (stereo not given) came in with a melting point of 271 °C.
Compound `COc1ccc(Cn2cnc3c(Cl)nc(F)nc32)cc1` came in with a melting point of 90 °C.
`O=c1ccc2c(-c3cccs3)nccc2[nH]1` returned a melting point of 238 to 240 °C.
`O=C(O)CNc1ccccc1F` yielded a melting point of 126 to 127 °C.
In the case of `O=C(OCC1CC1)c1ncn2c1[C@@H]1CCN1C(=O)c1c(I)cccc1-2`, the melting point was in the range of 190 to 191 °C.
In turn, `CCOC(=O)\C=C(C)/C=C/C=C(C)/C=C/C1=C(C)C[C@@H](O)CC1(C)C` had a melting point of 93 to 95 °C.
The result for `CCC(C(C)=CC(CNC(=O)c1cnc2nc(C)ccc2c1O)=NO)[N+](=O)[O-]` (stereo not given) reads 204 to 205 °C.
For the compound `O=C(c1ccc(F)cc1O)C1CC1`, the melting point was 58 °C.
The result for `O=C(O)c1[nH]c(=O)c2ccccc2c1-c1ccccc1` reads greater than 300 °C; that for `CC(c1ccc(C#N)nc1)C(O)(Cn1cncn1)c1ccc(F)cc1F` (stereo not given), 136 to 141 °C; that for `COc1cc2c(cc1C(F)(F)F)N(C(=O)Nc1csc(-c3cnccn3)n1)CC2`, greater than 240 °C.
The result for `CC1CCc2ccc(OCC(O)CNC3CCCCC3)cc2O1` (stereo not given) reads 97 to 99 °C; that for `O=c1[nH]ccn1-c1ccc(F)cc1`, 166 to 167 °C; that for `O=Cc1cc2c(s1)-c1ccccc1OC2C1=CCCC=C1` (stereo not given), 117 to 118 °C.
`Cn1c(-c2ccc(-n3ccnc3)cc2)cnc1[C@H](Cc1ccccn1)N(C=O)c1cc2ccc(Cl)cc2o1` registered a melting point of 165 to 169 °C.
The result for `CCCC1CC(O)c2cc(S(N)(=O)=O)sc2S1` (stereo not given) reads 156 to 157 °C; that for `Cc1ccc2nc(-c3ccc(-c4ccccc4)cc3)nc(C(=O)O)c2c1`, 193 to 196 °C.
`CCOC(=O)c1ccc2c(SC(=O)N3CCSCC3)cccn2c1=O` returned a melting point of 146 to 148 °C.
In the case of `FC(F)(F)c1ccc(Oc2ccc3nnsc3c2)c(Cl)c1`, the melting point lay in the range of 72 to 73 °C.
With `CC(=O)Nc1cnc(-c2ccccc2)c(-c2ccc(=O)n(C(C)C)n2)c1`, the melting point was 207 to 208 °C.
Compound `O=C(C=Cc1ccccc1C(=O)Cl)c1ccc([N+](=O)[O-])cc1` returned a melting point of 133 to 134 °C.
The compound `CC1(C)COC(C=Cc2ccc([N+](=O)[O-])cc2)OC1` registered a melting point of 86.5 to 88.5 °C.
The result for `COc1ccc(I)c(CC(=O)N(C)C)c1` reads 86 to 89 °C; that for `Oc1nsnc1-c1ccc(Cl)cc1`, 240 to 242 °C; that for `Cc1c(OCC(F)(F)F)ccnc1CSc1nc2cc(N3CCCCC3)c(F)cc2[nH]1`, 160 to 161 °C.

Values taken from a melting point compilation (Tetko et al.; mined from patent text by program, amines drawn as free bases though some values may be those of a salt).
